One series relates to StAR. The series is described as follows: StAR protein level in Y1 adrenal cells (immunoblot densitometry). In kind it is cell-based, mouse. On the procedure: Progesterone production and StAR protein level. Y1 cells were cultured overnight in 6-well plates at the density of 1.5×10^6 cells per well. To increase the basal level of StAR, the cells were pre-stimulated with 10 μM forskolin for 1 hour, washed twice with medium, before peptide loading. Thereafter, the cells were loaded with 50 μM of the arginine-coupled peptide for 5 hours before being treated with 5 μg/ml Actinomyocin D (Cat. No. A-9415, Sigma) for 30 min and stimulated with 10 μM forskolin (Cat. No. 344270, Calbiochem) or 10 IU/ml ACTH (Cat. No. A-6303, Sigma) for 12 hours. Media from cultures with different treatments were collected and diluted with plain medium to fall into the standard curves for the assay. Progesterone in the cell medium was measured by using either Spectria Progesterone RIA (Cat. No. 68521, Orion Diagnostica, Espoo, Finland) or DELFIA progesterone kit (Cat. No. A066-101, PerkinElmer) following the conditions recommended by the manufacture. The cells were lysed and the StAR protein was analysed by western blotting and the level measured by densiometric analysis.
StAR protein levels in the samples from Example 28 were analysed by immunoblotting. StAR consists of a 37-kDa precursor form containing an N-terminal mitochondrial targeting sequence and a processed 30-kDa mature protein (Epstein and Ormejohnson, 1991; Stocco and Sodeman, 1991). Y1 adrenal cells expressed a low basal level of StAR (FIG. 27, upper panel, lane 1). Upon forskolin stimulation, a significant increase in mature StAR protein (lane 2) occurred consistent with an increase in cholesterol transport over the mitochondrial membrane and a corresponding increase in steroid biosynthesis (bar diagram in FIG. 26). The forskolin-stimulated levels of StAR protein were reduced by 60% in MEME3-Arg11 treated cells (lane 5 and lower panel). In contrast, treatment with SM3-Arg11 reduced StAR levels by […] (lane 8, and lower panel). Thus, MEME3-Arg11 reduced StAR levels by […] as SM3-Arg11. […]
On the technique in general: A western blot detects proteins with antibodies after separation by electrophoresis.

Series [1] deals with T1, membrane localized RI in Jurkat T cells (Homo sapiens, UniProt P10644).
T1 construct: endogenous in cells; host or cells: Jurkat T cells
The series can be described thus: Immunofluorescence of RI localisation in Jurkat T cells. In kind it is cell-based.

The next series concerns PKA-C subunit. The series can be described thus: Coimmunoprecipitation of PKA kinase activity from HEK293 cells. In kind it is biochemical, human. The method, then:
Coimmunoprecipitation of PKA kinase activity. Cells at 50-80% confluency were transfected by using FuGENE (Roche Biochemicals). Five micrograms of plasmid DNA (GFP-AKAP-is-V5His, GFP-Scrambled-AKAP-is-V5His, GFP-MEME3-V5H is-and GFP-Scrambled-MEME3-V5His) was transfected into HEK293-cells. Cells were lysed 24 h later in 20 mM Hepes, pH 7.5/150 mM NaCl/1 mM EDTA/1% Triton X-100. MEME3 and the other peptides was immunoprecipitated. PKA kinase assays were performed by the filter paper assay (Corbin and Reimann, 1974, Methods Enzymol., 38, 287-294). The protein kinase inhibitor (PKI) residues 5-24 peptide was used as a specific inhibitor of the kinase (Scott et al., 1986, PNAS, 83, 1613-1616).
The specific activity (pmol/min per IP) of PKA-C subunit from HEK293 cells co-precipitating with chimeric MEME3 fusion protein was measured by a phosphotransferase assay using Kemptide as a substrate (Kemp et al., J. Biol. Chem. 252, p 4888-4894, 1977; Roskoski, R. Methods Enzymol. 99, p 3-6, 1983) in the absence and presence of cAMP (FIG. 12). Specific PKA activity was abrogated when PKI (5-24) peptide (10 μM) was added to the reaction mixture. The MEME3 fusion protein coprecipitated 17-fold more PKA-C activity than the RIIα-selective peptide, AKAP-is (IS) (Alto et al., 2003, supra). […] The accumulated data from three independent experiments are shown.

A further series concerns the target T2, RII (Homo sapiens, UniProt P13861).
T2 construct: endogenous in cells; host or cells: HEK293
The series can be described thus: Co-immunoprecipitation with RII in transfected HEK293 cells. Conditions: HEK293 cells transfected with GFP-fusion constructs. It is filed as cell-based. On the procedure: HEK293 cells at […] were transfected with ten μg of plasmid DNA (GFP, GFP-MEME3 or GFP-Scrambled MEME3) by using the CaCl2 method. Cells were lysed after 30 hours in lysis buffer (20 mM Hepes, pH 7.5/150 mM NaCl/1 mM EDTA/1% Triton X-100) with protease inhibitors (Complete Mini, EDTA-free tablets, Roche).
Immunoblot analysis. Immunocomplexes and lipid raft fractions were analysed on a 10, 15% or 4-20% PAGE and blotted onto PVDF membranes. The filters were blocked in 5% non-fat dry milk in TBST for 30 minutes at RT, incubated 1 hour at RT (or overnight at 4° C.) with primary antibodies, washed four times 5 minutes in TBST with 0.1% Tween-20 and incubated with a horseradish-peroxidase-conjugated secondary antibody. Blots were developed by using Supersignal West Dura Extended Duration Substrate or Supersignal West Pico substrate (Pierce).
Antibodies. RI or RII were immunoprecipitated with polyclonal antibodies against human RI or human RII at a 3 μg/ml dilution (Santa Cruz Biotechnology). MEME3 or scrambled peptide was immunoprecipitated with 1.5 μl of anti-GFP antiserum (Invitrogen). […]
Immunocomplexes were analysed on 10% PAGE (B and C) or 15% PAGE (D) and subjected to Western blotting using anti-GFP, anti-RI or anti-RII as indicated and blotted onto PVDF membranes. […]

The values that follow come from patent US20080248008A1, “Inhibitors of Protein Kinase a Anchoring” (priority 2004, published 2008).

T2 sequence (P13861 whole entry): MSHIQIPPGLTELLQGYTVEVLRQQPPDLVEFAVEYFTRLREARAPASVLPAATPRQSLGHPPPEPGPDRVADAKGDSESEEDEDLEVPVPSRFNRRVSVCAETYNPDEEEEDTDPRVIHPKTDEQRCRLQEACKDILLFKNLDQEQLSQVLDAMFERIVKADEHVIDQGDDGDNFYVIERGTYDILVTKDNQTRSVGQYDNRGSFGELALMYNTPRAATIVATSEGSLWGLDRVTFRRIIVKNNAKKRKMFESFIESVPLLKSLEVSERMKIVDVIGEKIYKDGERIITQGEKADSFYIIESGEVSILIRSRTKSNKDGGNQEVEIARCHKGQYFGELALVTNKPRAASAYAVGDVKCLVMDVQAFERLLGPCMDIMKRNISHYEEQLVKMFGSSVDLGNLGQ

With “LEQYANQLADQIIKEATERRRRRRRRRrr [MEME3-Arg11]”, the “reduction of StAR levels relative to SM3-Arg11” value in the series on StAR is recorded as “twice as much”. Besides, in the series with StAR (forskolin), the “reduction of forskolin-stimulated levels of StAR protein” value was determined as 60%. For the same compound, the “basal StAR level” value in the series with StAR (unstimulated) is “somewhat higher basal StAR level”. For the same compound, the “displacement of membrane localized RI” value in series [1] (1 μM) is “some displacement of RI from cell membrane”; in series [1] (5 μM) it was “All membrane localized RI was displaced and was delocalised”.

Regarding “IEKELAQQYQNADAITLE [SM3, scrambled MEME3 negative control peptide, reference compound]”, the coprecipitated kinase activity entry in the series on PKA-C subunit is given as “No kinase activity was detected”.

As to `CC[C@H](C)[C@H](NC(=O)[C@H](CCC(N)=O)NC(=O)[C@H](CC(=O)O)NC(=O)[C@H](C)NC(=O)[C@H](CC(C)C)NC(=O)[C@H](CCC(N)=O)NC(=O)[C@H](CC(N)=O)NC(=O)[C@H](C)NC(=O)[C@H](Cc1ccc(O)cc1)NC(=O)[C@H](CCC(N)=O)NC(=O)[C@H](CCC(=O)O)NC(=O)[C@@H](N)CC(C)C)C(=O)N[C@H](C(=O)N[C@@H](CCCCN)C(=O)N[C@@H](CCC(=O)O)C(=O)N[C@@H](C)C(=O)N[C@H](C(=O)N[C@@H](CCC(=O)O)C(=O)N[C@@H](CCCCNC(=O)c1ccc2c(c1)C(=O)OC21c2ccc(O)cc2Oc2cc(O)ccc21)C(N)=O)[C@@H](C)O)[C@@H](C)CC` [MEME3], the “co-precipitation with RII” value on RII is reported as “not with RII”. Also, the “coprecipitated PKA-C activity relative to AKAP-is (IS)” value in the series on PKA-C subunit (Kemptide substrate, three experiments) is listed as 17 fold.
